From ChEMBL document CHEMBL6121069, “A Medicinal Chemistry Perspective on Protein Tyrosine Phosphatase Nonreceptor Type 2 in Tumor Immunology” (J Med Chem, 2025)

Columns and labels:
[1] = biological target: T1, Tyrosine-protein phosphatase non-receptor type 2 (Homo sapiens, UniProt P17706)
T1 sequence (P17706 whole entry): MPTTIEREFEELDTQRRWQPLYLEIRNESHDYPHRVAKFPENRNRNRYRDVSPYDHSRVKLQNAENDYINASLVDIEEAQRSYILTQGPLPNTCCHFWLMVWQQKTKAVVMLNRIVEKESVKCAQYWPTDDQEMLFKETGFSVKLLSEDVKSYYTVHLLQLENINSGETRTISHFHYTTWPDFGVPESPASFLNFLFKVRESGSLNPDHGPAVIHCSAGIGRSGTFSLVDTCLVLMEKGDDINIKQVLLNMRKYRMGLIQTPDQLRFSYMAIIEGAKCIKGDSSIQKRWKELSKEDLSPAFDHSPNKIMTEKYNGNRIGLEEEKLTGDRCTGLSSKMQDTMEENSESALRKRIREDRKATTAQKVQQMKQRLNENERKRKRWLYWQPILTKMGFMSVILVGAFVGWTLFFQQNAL
Description: Inhibition of PTPN2 (unknown origin)

B16-F10 [2] = test: cells; conditions: Mus musculus
Description: Antiproliferative activity against mouse B16-F10 cells

[3] = biological target: T1, Tyrosine-protein phosphatase non-receptor type 2; remark: listed apart in the source
Description: Binding affinity to PTPN2 (unknown origin) assessed as inhibition constant

B16-F10 [4] = test: cells; conditions: Mus musculus; remark: listed apart in the source
Description: Antiproliferative activity against mouse B16-F10 cells assessed as inhibition of cell growth

[5] = biological target: T2, Tyrosine-protein phosphatase non-receptor type 1 (Homo sapiens, UniProt P18031)
T2 sequence (P18031 whole entry): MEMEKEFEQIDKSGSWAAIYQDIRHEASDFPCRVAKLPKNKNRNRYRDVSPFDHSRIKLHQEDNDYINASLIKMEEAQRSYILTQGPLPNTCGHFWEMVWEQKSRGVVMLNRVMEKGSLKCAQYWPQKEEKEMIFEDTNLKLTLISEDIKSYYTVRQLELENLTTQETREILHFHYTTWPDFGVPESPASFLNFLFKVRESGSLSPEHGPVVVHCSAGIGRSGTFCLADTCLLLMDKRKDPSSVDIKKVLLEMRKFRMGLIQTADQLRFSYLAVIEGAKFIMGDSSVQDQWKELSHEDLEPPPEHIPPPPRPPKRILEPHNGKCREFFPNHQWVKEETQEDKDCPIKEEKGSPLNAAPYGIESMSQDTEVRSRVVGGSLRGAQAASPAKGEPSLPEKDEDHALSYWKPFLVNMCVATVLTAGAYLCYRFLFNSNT
Description: Inhibition of PTP1B (unknown origin)

[6] = biological target: Protein cereblon/Tyrosine-protein phosphatase non-receptor type 2 (Homo sapiens, UniProt P17706+Q96SW2); conditions: hek293t
Sequence of Protein cereblon/Tyrosine-protein phosphatase non-receptor type 2 (Q96SW2 whole entry, one chain of several): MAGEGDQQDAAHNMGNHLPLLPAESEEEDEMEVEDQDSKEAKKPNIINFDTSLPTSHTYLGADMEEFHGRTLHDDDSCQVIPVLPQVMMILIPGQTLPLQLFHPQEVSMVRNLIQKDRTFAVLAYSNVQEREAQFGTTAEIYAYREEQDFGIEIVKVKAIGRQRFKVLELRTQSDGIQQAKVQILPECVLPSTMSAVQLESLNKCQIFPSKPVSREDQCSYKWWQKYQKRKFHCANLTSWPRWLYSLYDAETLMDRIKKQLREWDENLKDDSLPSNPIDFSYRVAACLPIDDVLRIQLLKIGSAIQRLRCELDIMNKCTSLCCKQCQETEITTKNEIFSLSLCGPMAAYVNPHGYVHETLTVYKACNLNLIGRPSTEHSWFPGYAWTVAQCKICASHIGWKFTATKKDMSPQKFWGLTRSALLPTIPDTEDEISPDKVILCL
Description: PROTAC activity at PTPN2/CRBN in HEK293T cells assessed as protein degradation measured for 48 hrs by Western blot analysis

[7] = biological target: T1, Tyrosine-protein phosphatase non-receptor type 2; remark: listed apart in the source
Description: Inhibition of full length human recombinant PTPN2 by mobility shift assay

SMILES: CC(C)CCn1cc(-c2ccc(O)c(N3CC(=O)NS3(=O)=O)c2F)cn1
- IC50 [1]: < 1000 nM

SMILES: O=C1CN(c2c(O)cc(NC3=NCCCN3)cc2F)S(=O)(=O)N1
- IC50 (B16-F10 [2]): < 5000 nM
- Ki [3]: 5 nM

SMILES: O=C1CN(c2c(O)cc(CC3CCCNC3)cc2F)S(=O)(=O)N1 (stereo unspecified)
- IC50 (B16-F10 [4]): 25800 nM

SMILES: CC(C)CCc1ccc2cc(O)c(N3CC(=O)NS3(=O)=O)cc2n1
- IC50 [1]: < 1000 nM

SMILES: O=C1CN(c2c(O)cc3c(c2F)C[C@H](NCCC2CC2)CC3)S(=O)(=O)N1
- IC50 (B16-F10 [2]): 220 nM

SMILES: Cc1cnc(Nc2cc(O)c(N3CC(=O)NS3(=O)=O)c(F)c2)nc1O
- IC50 (B16-F10 [2]): 50000 nM
- Ki [3]: < 1 nM

SMILES: O=C1CN(c2c(O)cc(CC3CCCN(CC4CC4)C3)cc2F)S(=O)(=O)N1 (stereo unspecified)
- IC50 (B16-F10 [4]): > 46400 nM

SMILES: CC(C)Cc1cnc(Nc2cc(O)c(N3CC(=O)NS3(=O)=O)c(F)c2)nc1O
- IC50 (B16-F10 [2]): 5000 nM
- Ki [3]: < 1 nM

SMILES: CC(C)CCc1ccc2cc(O)c(N3CC(=O)NS3(=O)=O)c(F)c2n1
- IC50 [1]: < 1000 nM

SMILES: COc1cc(C)nc(NCc2cc(O)c(N3CC(=O)NS3(=O)=O)c(F)c2)c1
- IC50 (B16-F10 [2]): 50 nM

SMILES: O=C1CN(c2c(O)cc3c(c2F)C[C@H](NCCC(F)F)CC3)S(=O)(=O)N1
- IC50 (B16-F10 [2]): 1500 nM
- IC50 [1]: 1 nM

SMILES: CC(C)CCn1cnc(-c2ccc(O)c(N3CC(=O)NS3(=O)=O)c2F)c1
- IC50 [1]: < 1000 nM

SMILES: COc1ccc(-c2ccc[nH]2)cc1N1CC(=O)NS1(=O)=O
- IC50 [5]: 80 nM

SMILES: CCN1CN(Cc2ccc(F)cc2)C(=O)S1
- IC50 [1]: 280 nM

SMILES: Cn1c(=O)n(C2CCC(=O)NC2=O)c2cccc(C3CCN(C(=O)c4ccc5c(F)c(N6CC(=O)NS6(=O)=O)c(O)cc5c4)CC3)c21 (stereo unspecified)
- DC50 [6]: 10 nM

SMILES: CC(C)CCN[C@@H]1COc2cc(O)c(N3CC(=O)NS3(=O)=O)c(F)c2C1
- IC50 [7]: 15.9 nM

SMILES: CC1CCN=C(Nc2cc(O)c(N3CC(=O)NS3(=O)=O)c(F)c2)N1 (stereo unspecified)
- IC50 (B16-F10 [2]): 5000 nM
- Ki [3]: 5 nM

SMILES: CC(C)CCc1ccc2ccc(N3CC(=O)NS3(=O)=O)cc2n1
- IC50 [1]: > 10000 nM

SMILES: Cc1ccnc(NCc2cc(F)c(N3CC(=O)NS3(=O)=O)c3[nH]ncc23)c1
- IC50 (B16-F10 [2]): 350 nM

SMILES: CN(Cc1cc(O)c(N2CC(=O)NS2(=O)=O)c(F)c1)C1CCC(C)(C)CC1
- IC50 (B16-F10 [2]): 14900 nM
- IC50 [1]: 50 nM

SMILES: CC(C)CCN1CCCC(Cc2cc(O)c(N3CC(=O)NS3(=O)=O)c(F)c2)C1 (stereo unspecified)
- IC50 (B16-F10 [4]): > 100000 nM

SMILES: O=C1SN(CCN2CCN(Cc3ccc4c(c3)OCO4)CC2)CN1Cc1ccccc1
- IC50 [1]: 5290 nM

SMILES: COc1cccc(NCc2cc(O)c(N3CC(=O)NS3(=O)=O)c(F)c2)n1
- IC50 (B16-F10 [2]): 8660 nM

SMILES: O=C1CN(c2c(O)cc3c(c2F)CC(CNCCC(F)F)N3)S(=O)(=O)N1 (stereo unspecified)
- IC50 [7]: 15.2 nM

SMILES: CC(C)N1CCN(CCN2CN(Cc3ccccc3)C(=O)S2)CC1
- IC50 [1]: 7100 nM

SMILES: Cn1c(=O)n(C2CCC(=O)NC2=O)c2cccc(C3CCN(CCOCCC(=O)NCCOc4ccc5cc(O)c(N6CC(=O)NS6(=O)=O)c(F)c5c4)CC3)c21 (stereo unspecified)
- DC50 [6]: > 1000 nM

SMILES: Cc1ccc(NCc2cc(O)c(N3CC(=O)NS3(=O)=O)c(F)c2)nn1
- IC50 (B16-F10 [2]): 630 nM

SMILES: O=C(O)CN1CCN(CCN2CN(Cc3ccccc3)C(=O)S2)CC1
- IC50 [1]: 8770 nM

SMILES: O=C1CN(c2c(O)cc3c(c2F)CCNCC3)S(=O)(=O)N1
- IC50 (B16-F10 [2]): 350 nM

SMILES: O=C1CN(c2c(O)cc(NC(=O)N[C@H](CO)c3ccccc3)cc2F)S(=O)(=O)N1 (racemic)
- IC50 (B16-F10 [2]): < 5000 nM
- IC50 [1]: 5 nM

SMILES: CC(C)CCn1cc(-c2ccc(O)c(N3CC(=O)NS3(=O)=O)c2F)nn1
- IC50 [1]: < 1000 nM

SMILES: COc1cc(C)nc(NCc2cc(F)c(N3CC(=O)NS3(=O)=O)c3[nH]ncc23)c1
- IC50 (B16-F10 [2]): 20 nM

SMILES: CC(C)CCn1ccc2cc(O)c(N3CC(=O)NS3(=O)=O)c(F)c2c1=O
- IC50 [1]: > 1000 nM

SMILES: CC(C)CCNC(=O)Nc1cc(O)c(N2CC(=O)NS2(=O)=O)c(F)c1
- IC50 (B16-F10 [2]): < 5000 nM
- IC50 [1]: 5 nM

SMILES: CC(C)CCOc1ccc2cc(O)c(N3CC(=O)NS3(=O)=O)c(F)c2n1
- IC50 [1]: < 1000 nM

SMILES: CC1(C)CCC(NCc2cc(O)c(N3CC(=O)NS3(=O)=O)c(F)c2)CC1
- IC50 (B16-F10 [2]): 81000 nM

SMILES: Cc1nn(CC(=O)Nc2ccc3c(F)c(N4CC(=O)NS4(=O)=O)c(O)cc3c2)c(C)c1-c1ccc2c(c1)n(C)c(=O)n2C1CCC(=O)NC1=O (stereo unspecified)
- DC50 [6]: < 50 nM

SMILES: COc1ccc2cc(O)c(N3CC(=O)NS3(=O)=O)c(F)c2n1
- IC50 [1]: < 1000 nM
